Results from patent US10391070B2, “Compositions and methods for treating neurological diseases or injury” (MUSC FOUNDATION FOR RESEARCH DEVELOPMENT, priority 2012, dated 2019).
Where two headings read alike, the source gives them in different places.

Key:
zebrafish larvae = test: Zebrafish larval toxicity (NOEC, lethal dose); assay type: in vivo; conditions: 7 dpf zebrafish larvae; for Lethal dose: up to 5 h treatment; for Highest concentration tested for anti-seizure activity: highest sub-lethal dose
Procedure: Using a 96-well plate, one zebrafish larva (7 dpf) was placed in each well in 100 μL of tank water (TW). 100 μL of each compound (0.5-15 μM) was then added to each well for 12 animals (one row) to give a final volume of 200 […]. A control row was tested for DMSO toxicity effects. […] Each drug was assessed for the no observed effect concentration (NOEC), the highest non-lethal dose resulting in no apparent toxic effects.
Zebrafish (AB strain) were obtained from the Zebrafish International Resource Center (supported by P40 RR012546 from NIH-NCRR). Zebrafish were maintained and crossed according to standard methods (Westerfield, 2000). Fertilized eggs were collected and placed in E3 embryo medium and positioned in an incubator set at 28.5° C. with a 14/10 h light/dark cycle (Kimmel et al., 1995). To determine the lethal dose of each compound, 96-well plates containing one zebrafish (7 days post-fertilization, dpf) per well in 100 μL of tank water were used. 100 μL of each compound (0.5 to 15 μM) was added to each well for 12 animals (one row) for a final volume of 200 μL. One row of larvae was used as DMSO only controls. […] All zebrafish studies were approved by the Medical University of South Carolina Institutional Animal Care and Use Committee (AR #2850) and performed in accordance with the guidelines.
Using a 96-well plate, one zebrafish larva (7 dpf) was placed in each well in 100 μL of tank water. 100 μL of each compound was then added to each well for 12 animals (one row) for a final volume of 200 μL. One row of zebrafish larvae was used as DMSO only controls. […] Toxicity was also measured in the mouse model by the NIH Anticonvulsant Screening Program at the National Institute of Neurological Disorders and Stroke (Stables and Kupferberg, 1997), according to the established NIH experimental procedures. Compounds were delivered into mice by intraperitoneal (i.p.) injection at a dose of 100 mg/kg in sterile 5% DMSO, 95% Neobee (Josey et al., 2013). Acute toxicity was assessed by monitoring the animals for impaired neuromuscular function by placing treated mice on a rod rotating at 6 rpm. […]

PTZ-induced seizures = test: PTZ-induced seizure (swim activity) model in zebrafish larvae; assay type: in vivo, zebrafish (Danio rerio); conditions: for Seizure suppression: PTZ-treated zebrafish larvae, pretreated 1 hr at NOEC
Procedure: The DanioVision locomotion tracking instrument with Ethovision XT software (Noldus) was used to measure the severity of the seizures by quantifying the locomotor activity of each fish.
In a 48-well plate, one 6-7 dpf larva was added per well. Compounds were given at a sub-lethal dose and treated for 1 h. Three control rows were included—tank water (TW) only, PTZ only and PTZ+VPA (2-4 mM final concentration of VPA). […] After 5 min, the plate was transferred to the Daniovision apparatus and the chamber light was turned on. After 2 min, Ethovision was used to determine the distance traveled (a marker of seizure of activity) by each fish for 15 min (25 frames per second). Velocity, duration of movement, and frequency of movement were also determined from the same recording. After measurement, fish were monitored visually for survival. The distance moved over the recording period with Ethovision XT software (Noldus) was averaged over 8 wells per treatment unless the fish was not detected.
In a 48-well plate, one 7 dpf zebrafish was added per well. Larvae were dosed with each compound at a sub-lethal dose 1 h prior to PTZ treatment. Three control rows were included with each experiment—tank water only control, PTZ only and PTZ+VPA (4 mM final concentration of VPA). […] After 5 min, the plate was transferred to the Daniovision instrument (Noldus Information Technology) and the chamber light was turned on. After 2 min, MediaRecorder (Noldus) was used to record video for 15 min. A small number of videos were acquired 25 frames per second, but the majority of the data was acquired at the frame rate of 60 frames per second. After recording, fish were monitored visually for survival. Ethovision XT software (Noldus) was used to track the fish movement from the video images in order to calculate the total distance traveled over 15 min. […] All experimental comparisons were made between animals from the same clutch.

HT22 cells [1] = test: In vitro neurotoxicity without glutamate (MTS cell viability); assay type: cell-based, mouse; conditions: for Safety Index TC50/PC50: HT22 cells
Procedure: (§1) The HT22 neuronal cell line is a subclone of HT4, derived from the mouse hippocampus (Morimoto and Koshland, 1990). […] HT22 cells were used. The cells were grown in Dulbecco's Modified Eagle's medium (DMEM/high glucose) supplemented with 10% fetal bovine serum (Hyclone) and 5 mL Antibiotic-Antimycotic (Amphotericin B, Penicillin, and Streptomycin; Invitrogen) at 37° C. in 5% CO2.
(§2) Cell viability was assessed by the ability of the viable cells to metabolize 3-(4,5-dimethylthiazol-2-yl)-5-(3-carboxymethoxyphenyl)-2(4-sulfophenyl)2-H-tetrazolium, inner salt (MTS), as described previously (Cory et al., 1991). The metabolism of tetrazolium salts is often used to measure cellular proliferation, but in the system used here, it has been previously shown to correlate well with cell viability as determined by trypan blue exclusion and colony-forming assays (Davis and Maher, 1994). Briefly, HT-22 cells were seeded onto 96-well plates at 5.0×10^3 cells per well in 75 μL of medium and maintained at 37° C. in 5% CO2 overnight prior to the initiation of experimental treatments. For glutamate toxicity testing, cells were subsequently treated with 25 μL of medium containing glutamate (monosodium glutamate, Sigma, 1 M stock concentration in media, to achieve a final concentration of 10 mM) plus inhibitors (stock in DMSO) and maintained at 37° C. in 5% CO2. For t-BuOOH toxicity testing, cells were subsequently treated with 25 μL of medium containing t-BuOOH (Sigma, 10 mM stock concentration, to achieve a final concentration of 50 μM) plus inhibitors (stock in DMSO) and maintained at 37° C. in 5% CO2 for 3 hours, after which the media was removed, cells washed gently with HBSS, the media replaced with standard culture media, and the cells returned to incubation at 37° C. in 5% CO2. For both glutamate and t-BuOOH treatments, 10 μl of MTS solution was added to each well 24 hrs after initial treatment, and the cells were maintained in growth medium for 2 h at 37° C. Absorbance at 490 nm was subsequently measured by a SpectraMax 190 plate reader (Molecular Devices). The growth medium without cells in the presence of MTS solution was used as solution background and untreated cells were considered the controls. Cell viability was calculated as a percentage compared with untreated controls. EC50 determinations were based on 12-point titrations using GraphPad Prism, and each experiment was repeated at least four times. Morphology of HT22 cells following treatments was determined by phase-contrast microscopy. Digital images of cells grown on cell culture plates were captured at 10× magnification.

[2] = as above; assay type: cell-based, mouse; conditions: mouse, HT22 cells without glutamate, 24 hrs, MTS, concentration producing 50% toxicity, read-out: Toxicity TC50
Procedure: as §1, §2

HT22 cells [3] = test: In vitro neuroprotective activity against glutamate-induced cell death (MTS cell viability); assay type: cell-based, mouse; conditions: HT22 cells; for EC50: Mus musculus, HT-22, 10 mM glutamate, 24 hrs, MTS, concentration producing 50% protection, read-out: Protection PC50
Procedure: as §1, §2
The neuroprotective properties of VK and its derivatives were estimated through their protective effects against cell death in mouse neuronal HT22 cells induced by exposure to high levels of glutamate, which recapitulates a hallmark of the extracellular environment found in several neurodegenerative diseases and CNS injuries and is a well established model of neuronal oxidative stress. This investigation began by comparing the relative abilities of the two predominant naturally occurring forms of VK, VK1 and VK2, to prevent oxidative cell death. […] Several 1,4-naphthoquinones with various substitutions at the 2′ and 3′ positions were tested to determine the minimum structural requirement of the system and what the optimum scaffold for future developmental efforts and biological validation would be (FIG. 1B and Table 1). […] Substitution by a single methyl group at the 2′ position (VK3) improves the compound's ability to protect against cell death. Various other simple substituents at the 2′ and 3′ positions give the naphthoquinone structure the ability to prevent oxidative cell death at nanomolar concentrations (Table 1 and FIG. 16).

[4] = HT22 neuronal cells (without glutamate)

Row | Structure (SMILES) | Safety Index TC50/PC50 (HT22 cells [1]) | CC50 at 24 h [2, 4] [µM] | EC50 (HT22 cells [3]) [µM] | also measured
1 | CCCC(CCC)C(=O)NO [2-propylpentane hydroxamic acid (VPHA), 2-propylpentane hydroxamic acid] | – | – | – | Lethal dose (zebrafish larvae): >0.05 mM; Highest concentration tested for anti-seizure activity (zebrafish larvae): 0.05 mM; Seizure suppression (PTZ-induced seizures): No
2 | Cc1ccc(C(=O)NC2=CC(=O)c3ccccc3C2=O)cc1 [Compound 3h, N-(1,4-dioxo-1,4-dihydronaphthalen-2-yl)-4-methylbenzamide] | 63 | 24 | 0.382 | –
3 | O=C(NC1=CC(=O)c2ccccc2C1=O)c1ccc(Cl)cc1 [Compound 3i, 4-chloro-N-(1,4-dioxo-1,4-dihydronaphthalen-2-yl)benzamide] | 67 | 27 | 0.405 | –
4 | O=C(NC1=CC(=O)c2ccccc2C1=O)c1cccc(Cl)c1 [Compound 3j, 3-chloro-N-(1,4-dioxo-1,4-dihydronaphthalen-2-yl)benzamide] | 203 | > 100 | 0.492 | –
5 | O=C(Cc1ccccc1)NC1=CC(=O)c2ccccc2C1=O [Compound 3k, N-(1,4-dioxo-1,4-dihydronaphthalen-2-yl)-2-phenylacetamide] | 49 | – | 0.658 | CC50 at 24 h [2]: 32 µM
6 | O=C(Cc1ccc(-c2ccccc2)cc1)NC1=CC(=O)c2ccccc2C1=O [Compound 3l, 2-([1,1′-biphenyl]-4-yl)-N-(1,4-dioxo-1,4-dihydronaphthalen-2-yl)acetamide] | 47 | 42 | 0.89 | –
7 | CCNC(=O)NC1=CC(=O)c2ccccc2C1=O [Compound 4a, 1-(1,4-dioxo-1,4-dihydronaphthalen-2-yl)-3-ethylurea] | 28 | – | 0.177 | CC50 at 24 h [2]: 5 µM
8 | CC(C)NC(=O)NC1=CC(=O)c2ccccc2C1=O [Compound 4b, 1-(1,4-dioxo-1,4-dihydronaphthalen-2-yl)-3-isopropylurea] | 125 | 8 | 0.064 | –
9 | O=C(NC1=CC(=O)c2ccccc2C1=O)Nc1ccccc1 [Compound 4c, 1-(1,4-dioxo-1,4-dihydronaphthalen-2-yl)-3-phenylurea] | 112 | > 100 | 0.89 | –
10 | O=C(NCc1ccccc1)NC1=CC(=O)c2ccccc2C1=O [Compound 4d, 1-benzyl-3-(1,4-dioxo-1,4-dihydronaphthalen-2-yl)urea] | 135 | – | 0.74 | CC50 at 24 h [2]: > 100 µM
11 | O=C(NO)C(c1ccccc1)c1ccccc1 [Diphenyl acetic hydroxamic acid (dPAHA), diphenyl acetic hydroxamic acid] | – | – | – | Lethal dose (zebrafish larvae): 0.01 mM; Highest concentration tested for anti-seizure activity (zebrafish larvae): 0.0075 mM; Seizure suppression (PTZ-induced seizures): No
12 | O=C(CCCCCCC(=O)Nc1ccccc1)NO [Suberoylanilide hydroxamic acid (SAHA), suberoylanilide hydroxamic acid] | – | – | – | Lethal dose (zebrafish larvae): >0.015 mM; Highest concentration tested for anti-seizure activity (zebrafish larvae): 0.015 mM; Seizure suppression (PTZ-induced seizures): No
13 | CN1CCc2c(c3ccccc3n2Cc2ccc(C(=O)NO)cc2)C1 [Tubastatin A (Tub A), Tubastatin A] | – | – | – | Lethal dose (zebrafish larvae): >0.012 mM; Highest concentration tested for anti-seizure activity (zebrafish larvae): 0.012 mM; Seizure suppression (PTZ-induced seizures): No
14 | CC1=C(C/C=C(\C)CCC[C@H](C)CCC[C@H](C)CCCC(C)C)C(=O)c2ccccc2C1=O [VK1, phylloquinone, reference compound] | – | – | – | cellular toxicity (HT22 cells [1]): neither exhibited any signs of cellular toxicity; protection from oxidative cell death (HT22 cells [3]; glutamate): rescued HT22 cells from oxidative cell death; reduction of seizures (PTZ-induced seizures; PTZ-treated 6 dpf zebrafish, up to 100 mM): neither were found to reduce seizures
